# Assay results reported in the supplement of paper PMC11208160.
# Experiment: recombinant UMI read abundance after kanamycin selection (control-corrected) (log10(CPM+1)); higher = more efficient recombination; extreme values may be limits of the assay; sequences stand for … in AGTGCAGAGAAAATCGGCCAGTTTTCTCTGCCTGCAGTCCGCATGCCGTGGGACCCCTTGGGTTCTAACCTGTTGCCTAGATTTATGCAGCGGACTGCCTTTCTCCCAAAGTGATAAACCGG…AGGTTGGTTTCACT; site = the 11-nt donor
# How it was run: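 Counts of recombinant UMIs were reported as log10(CPM+1). Before that, they were converted to CPM, averaged over replicates and scaled using control-derived factors. They came from PCR across the donor–target junction after Escherichia coli carrying the pair library and target plasmid was plated on IPTG (0.07 mM) plus kanamycin, or unselected, in two replicates each.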
# 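Note: IS621 bridge recombinase in Escherichia coli cells against a fixed T5 target plasmid.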
row,Sequence,recombinant UMI read abundance (log10)
1,ATCCAAGCATGGACCGGTTTTCCCGGTAATCCGTATTTGCG (site ATCCAAGCTCC),0.00949
2,ATCCAAGCATGGACCGGTTTTCCCGGTAATCCGTATTTGCG (site ATCCAAGCTCG),0.262
3,ATCCAAGCATGGACCGGTTTTCCCGGTAATCCGTATTTGCG (site ATCCAAGCTCT),0.689
4,ATCCATGCATGGACCGGTTTTCCCGGTAATCCGTATTTGAG (site ATCCAAGCTCT),0.0773
5,ATCCATGCATGGACCGGTTTTCCCGGTAATCCGTATTTGAG (site ATCCACGCTCT),0.0124
6,ATCCATGCATGGACCGGTTTTCCCGGTAATCCGTATTTGAG (site ATCCAGGCTCT),0.0333
7,ATCCATGCATGGACCGGTTTTCCCGGTAATCCGTATTTGAG (site ATCCATGCTCT),1.05
8,ATCCGCGCATGGACCGGTTTTCCCGGTAATCCGTATTTGCG (site ATCCGCGCTCG),0.503
9,ATCCTAGCATGGACCGGTTTTCCCGGTAATCCGTATTTGTA (site ATCCTAGCTTA),1.58
10,ATCCTATCATGGACCGGTTTTCCCGGTAATCCGTATTTGAG (site ATCCTATCTCT),0.448
11,ATCCTTCCATGGACCGGTTTTCCCGGTAATCCGTATTTGCC (site ATCCTTCCTGG),0
12,ATCGAGACATGGACCGGTTTTCCCGGTAATCCGTATTTGGT (site ATAGAGACTAC),1.76
13,ATCGAGACATGGACCGGTTTTCCCGGTAATCCGTATTTGGT (site ATCGAGACTAC),1.01
14,ATCGAGACATGGACCGGTTTTCCCGGTAATCCGTATTTGGT (site ATGGAGACTAC),0.604
15,ATCGAGACATGGACCGGTTTTCCCGGTAATCCGTATTTGGT (site ATTGAGACTAC),0.017
16,ATCGCGGCATGGACCGGTTTTCCCGGTAATCCGTATTTGTC (site ATCGCGGCTGA),2.69
17,ATCTATACATGGACCGGTTTTCCCGGTAATCCGTATTTGAA (site ATCTATACTAT),0.0589
18,ATCTATACATGGACCGGTTTTCCCGGTAATCCGTATTTGAA (site ATCTATACTCT),0.0128
19,ATCTATACATGGACCGGTTTTCCCGGTAATCCGTATTTGAA (site ATCTATACTGT),0
20,ATCTATACATGGACCGGTTTTCCCGGTAATCCGTATTTGAA (site ATCTATACTTT),1.29
21,ATCTATACATGGACCGGTTTTCCCGGTAATCCGTATTTGAC (site AACTATACTGT),0.0062
22,ATCTATACATGGACCGGTTTTCCCGGTAATCCGTATTTGAC (site ACCTATACTGT),0.944
23,ATCTATACATGGACCGGTTTTCCCGGTAATCCGTATTTGAC (site AGCTATACTGT),1.66
24,ATCTATACATGGACCGGTTTTCCCGGTAATCCGTATTTGAC (site ATATATACTGT),0.408
25,ATCTATACATGGACCGGTTTTCCCGGTAATCCGTATTTGAC (site ATCAATACTGT),0

row,Sequence,recombinant UMI read abundance (log10)
1,ATCTATACATGGACCGGTTTTCCCGGTAATCCGTATTTGAC (site ATCCATACTGT),1.7
2,ATCTATACATGGACCGGTTTTCCCGGTAATCCGTATTTGAC (site ATCGATACTGT),0
3,ATCTATACATGGACCGGTTTTCCCGGTAATCCGTATTTGAC (site ATCTAAACTGT),0
4,ATCTATACATGGACCGGTTTTCCCGGTAATCCGTATTTGAC (site ATCTACACTGT),0.552
5,ATCTATACATGGACCGGTTTTCCCGGTAATCCGTATTTGAC (site ATCTAGACTGT),0
6,ATCTATACATGGACCGGTTTTCCCGGTAATCCGTATTTGAC (site ATCTATACTAT),0.00827
7,ATCTATACATGGACCGGTTTTCCCGGTAATCCGTATTTGAC (site ATCTATACTCT),0.011
8,ATCTATACATGGACCGGTTTTCCCGGTAATCCGTATTTGAC (site ATCTATACTGA),0.0717
9,ATCTATACATGGACCGGTTTTCCCGGTAATCCGTATTTGAC (site ATCTATACTGC),0
10,ATCTATACATGGACCGGTTTTCCCGGTAATCCGTATTTGAC (site ATCTATACTGG),0
11,ATCTATACATGGACCGGTTTTCCCGGTAATCCGTATTTGAC (site ATCTATACTGT),2.44
12,ATCTATACATGGACCGGTTTTCCCGGTAATCCGTATTTGAC (site ATCTATACTTT),0.0131
13,ATCTATACATGGACCGGTTTTCCCGGTAATCCGTATTTGAC (site ATCTATCCTGT),0
14,ATCTATACATGGACCGGTTTTCCCGGTAATCCGTATTTGAC (site ATCTATGCTGT),0
15,ATCTATACATGGACCGGTTTTCCCGGTAATCCGTATTTGAC (site ATCTATTCTGT),0.327
16,ATCTATACATGGACCGGTTTTCCCGGTAATCCGTATTTGAC (site ATCTCTACTGT),0
17,ATCTATACATGGACCGGTTTTCCCGGTAATCCGTATTTGAC (site ATCTGTACTGT),0
18,ATCTATACATGGACCGGTTTTCCCGGTAATCCGTATTTGAC (site ATCTTTACTGT),0
19,ATCTATACATGGACCGGTTTTCCCGGTAATCCGTATTTGAC (site ATGTATACTGT),1.03
20,ATCTATACATGGACCGGTTTTCCCGGTAATCCGTATTTGAC (site ATTTATACTGT),0
21,ATCTATACATGGACCGGTTTTCCCGGTAATCCGTATTTGAC (site CTCTATACTGT),2.17
22,ATCTATACATGGACCGGTTTTCCCGGTAATCCGTATTTGAC (site GTCTATACTGT),0.424
23,ATCTATACATGGACCGGTTTTCCCGGTAATCCGTATTTGAC (site TTCTATACTGT),1.19
24,ATCTATGCATGGACCGGTTTTCCCGGTAATCCGTATTTGAC (site ATCTATACTGT),2.11
25,ATCTATGCATGGACCGGTTTTCCCGGTAATCCGTATTTGAC (site ATCTATCCTGT),0

row,Sequence,recombinant UMI read abundance (log10)
1,ATCTATGCATGGACCGGTTTTCCCGGTAATCCGTATTTGAC (site ATCTATGCTGT),2.57
2,ATCTATGCATGGACCGGTTTTCCCGGTAATCCGTATTTGAC (site ATCTATTCTGT),0
3,ATCTCAGCATGGACCGGTTTTCCCGGTAATCCGTATTTGGG (site AACTCAGCTCC),0.0145
4,ATCTCAGCATGGACCGGTTTTCCCGGTAATCCGTATTTGGG (site ACCTCAGCTCC),0.01
5,ATCTCAGCATGGACCGGTTTTCCCGGTAATCCGTATTTGGG (site AGCTCAGCTCC),0.0129
6,ATCTCAGCATGGACCGGTTTTCCCGGTAATCCGTATTTGGG (site ATCTCAGCTCC),0.323
7,ATCTCTACATGGACCGGTTTTCCCGGTAATCCGTATTTGAC (site ATCTATACTGT),0.264
8,ATCTCTACATGGACCGGTTTTCCCGGTAATCCGTATTTGAC (site ATCTCTACTGT),2.29
9,ATCTCTACATGGACCGGTTTTCCCGGTAATCCGTATTTGAC (site ATCTGTACTGT),0.00346
10,ATCTCTACATGGACCGGTTTTCCCGGTAATCCGTATTTGAC (site ATCTTTACTGT),0
11,ATCTGGACATGGACCGGTTTTCCCGGTAATCCGTATTTGCC (site ATCTGGACTGG),1.25
12,ATCTGTGCATGGACCGGTTTTCCCGGTAATCCGTATTTGGC (site ATCTGTGCTGC),0
13,ATCTTCCCATGGACCGGTTTTCCCGGTAATCCGTATTTGCA (site ATCTTCCCTTG),0.523
14,ATCTTTACATGGACCGGTTTTCCCGGTAATCCGTATTTGAC (site ATCTATACTGT),0.832
15,ATCTTTACATGGACCGGTTTTCCCGGTAATCCGTATTTGAC (site ATCTCTACTGT),0
16,ATCTTTACATGGACCGGTTTTCCCGGTAATCCGTATTTGAC (site ATCTGTACTGT),0.247
17,ATCTTTACATGGACCGGTTTTCCCGGTAATCCGTATTTGAC (site ATCTTTACTGT),0.661
18,ATGAACACATGGACCGGTTTTCCCGGTAATCCGTATTTGTG (site ATGAACACTCA),1.96
19,ATGACATCATGGACCGGTTTTCCCGGTAATCCGTATTTGAT (site ATGACATCTAT),2.14
20,ATGACGGCATGGACCGGTTTTCCCGGTAATCCGTATTTGAG (site ATGACGGCTCT),1.39
21,ATGACTCCATGGACCGGTTTTCCCGGTAATCCGTATTTGGA (site ATGACTCCTTC),0.437
22,ATGACTGCATGGACCGGTTTTCCCGGTAATCCGTATTTGCG (site ATGACTGCTCG),1.7
23,ATGAGCGCATGGACCGGTTTTCCCGGTAATCCGTATTTGGG (site ATGAGCGCTCC),0.00562
24,ATGAGGACATGGACCGGTTTTCCCGGTAATCCGTATTTGCT (site ATGAGGACTAG),2.89
25,ATGATATCATGGACCGGTTTTCCCGGTAATCCGTATTTGCA (site ATGATATCTTG),2.39
